Consider 9 compounds from US20140079632A1, “ACTIVITY-BASED PROBES FOR THE UROKINASE P[…]” (UNIVERSITEIT ANTWERPEN, priority 2011, published 2014).

Each structure is given as a SMILES string.

The term IC50 denotes the point on the concentration scale where inhibition reaches its midpoint.

Assay type in all cases: biochemical
Assay [1] addresses T1, thrombin (from human plasma) (Homo sapiens, UniProt P00734).
T1 construct: thrombin (from human plasma, Sigma); purchased Sigma; host or cells: human plasma
Kind of assay: Selectivity: thrombin inhibition, substrate Biophen CS-21(66). As to conditions: 15 min preincubation; Tris buffer pH 8.3; 580 μM substrate. The procedure:
(§1) The substrate and human enzyme were obtained from Nodia. The reaction was monitored at 405 nm, and the initial rate was determined between 0 and 0.25 absorbance units in 20 min. […] A 50 mM Tris buffer, pH 8.8, was used. From each inhibitor concentration, 5 μL was added, obtaining a final concentration from 0 to 250 μM in a total volume of 0.2 mL. Activity measurements were routinely performed in duplicate. […] IC50 values were obtained by fitting the data with the four-parameter logistics equation using Grafit 5.
(§2) The IC50 values for plasmin (from human plasma, Sigma), tPA (recombinant, Nodia), thrombin (from human plasma, Sigma), and FXa were determined in the same way as for uPA.
(§3) For tPA and thrombin, Tris buffer, pH 8.3, was used, for FXa, Tris buffer, pH 8.3, for plasmin, Tris buffer, pH 7.4, was used.

Assay [2] deals with T2, plasmin (from human plasma) (Homo sapiens, UniProt P00747).
T2 construct: purchased Sigma; host or cells: human plasma
Briefly: Selectivity: plasmin inhibition, substrate Biophen CS-21(66). As to conditions: 15 min preincubation; Tris buffer pH 7.4; 580 μM substrate. The procedure:
as §1, §2, §3

Assay [3] addresses T3, tPA (recombinant) (Homo sapiens, UniProt P00750).
T3 construct: purchased Nodia
Briefly: Selectivity: tPA inhibition, substrate Biophen CS-05(88). As to conditions: 15 min preincubation; Tris buffer pH 8.3; 1.25 mM substrate. How it is done: as §1, §2, §3

In assay [4] the target is T4, uPA (Homo sapiens, UniProt P00749).
T4 construct: purchased Nodia
Kind of assay: uPA inactivation kinetics from progress curves (kobs versus inhibitor concentration, kapp). The following applies: 250 μM substrate, 37° C. The procedure: (§4) Inhibitor stock solutions were prepared in DMSO and stored at −20° C. Because the compounds described in this paper completely inactivate uPA following pseudofirst-order kinetics, the IC50 value is inversely correlated with the second-order rate constant of inactivation. For a simple pseudofirst-order inactivation process, the activity after incubation with inhibitor (vi) varies with the inhibitor concentration (i), as described in the following equation: […]
where vo is the activity in absence of inhibitor, k is the second-order rate constant of inactivation, and t is the time. The inactivation rate constant was determined from the time course of inhibition.
The inhibitor was mixed with the substrate (250 μM final concentration), and the buffer solution with the enzyme was added at the time zero. The inhibitor concentrations were chosen to obtain total inhibition of the enzyme within 20 min. The progress curves show the absorbance of p-nitroanilide produced as a function of time. Initially, no inhibitor is bound to the enzyme, and the tangent to the progress curve (dA/dt) is proportional to the concentration of the free enzyme. The concentration of free enzyme decreases over time due to the kinetics of inhibitor binding, as described above. Progress curves were recorded in pseudofirst-order conditions ([I]0>>[E]0) and with less than 10% conversion of the substrate during the entire time course. In these conditions, dA/dt decreases exponentially with time. The progress curves were fitted with the integrated rate equation to yield a value for kobs, a pseudofirst-order rate constant
At=v0[1−e^−k^obs^t]/kobs+A0
where At=absorbance at time t, A0=absorbance at time zero, and v0=uninhibited initial rate.
The apparent second-order rate constant (kapp) was calculated from the slope of the linear part of the plot of kobs versus the inhibitor concentration ([I]0). In case of competition between the inhibitor and the substrate, kapp is smaller than the “real” second order rate constant k discussed above because a certain fraction of the enzyme is present as an enzyme-substrate complex. kapp depends on the substrate concentration used in the experiment, as described by Lambeir et al.^40 For most final compounds, the kobs versus [I]0 plot was not linear, but could be fitted with a hyperbolic function: kobs=k2[I]0/(K1+[I]0) (two step mechanism). Where K1 is the dissociation constant of the reversible enzyme-inhibitor complex and k2 is the first-order rate constant associated with irreversible modification of the enzyme. A kapp could be calculated as k2/K1.

In assay [5] the target is FXa (Homo sapiens, UniProt P00742). Kind of assay: Selectivity: FXa inhibition, substrate Biophen CS-11(32). The following applies: for FXa % (I) @ 250: at 250 (μM); for IC50: 15 min preincubation, Tris buffer pH 8.3, 522 μM substrate.
For assay [6], the target named is T4, uPA. Briefly: uPA inhibition: in vitro evaluation, IC50 with chromogenic substrate Biophen CS-61(44). The following applies: 15 min preincubation at 37° C.; Tris buffer pH 8.8; 250 μM substrate. The procedure:
Enzymatic activity was measured at 37° C. in a Spectramax 340 (Molecular Devices) microtiter plate reader using the chromogenic substrate Biophen CS-61(44) (LpyroGlu-Gly L-Arg-p-NA.HCl), with a Km of 80 μM.
The substrate and human enzyme were obtained from Nodia. The reaction was monitored at 405 nm, and the initial rate was determined between 0 and 0.25 absorbance units in 20 min. The reaction mixture contained 250 μM substrate and approximately 1 mU of enzyme in 145 μL of buffer in a final volume of 200 μL. A 50 mM Tris buffer, pH 8.8, was used. From each inhibitor concentration, 5 μL was added, obtaining a final concentration from 0 to 250 μM in a total volume of 0.2 mL. Activity measurements were routinely performed in duplicate. […] IC50 values were obtained by fitting the data with the four-parameter logistics equation using Grafit 5.
where s=slope factor, v=rate, I0=inhibitor concentration, and range=the fitted uninhibited value minus the background. The equation assumes the y falls with increasing x.
as §4

Where [7] appears, read: asterisked: compound showed a two-step mechanism, kapp calculated as k2/K1.
The mark [8] stands for this setting: apparent second-order rate constant from slope of kobs versus [I]0, no asterisk.

Sequence of FXa (P00742 235-488 limits assumed): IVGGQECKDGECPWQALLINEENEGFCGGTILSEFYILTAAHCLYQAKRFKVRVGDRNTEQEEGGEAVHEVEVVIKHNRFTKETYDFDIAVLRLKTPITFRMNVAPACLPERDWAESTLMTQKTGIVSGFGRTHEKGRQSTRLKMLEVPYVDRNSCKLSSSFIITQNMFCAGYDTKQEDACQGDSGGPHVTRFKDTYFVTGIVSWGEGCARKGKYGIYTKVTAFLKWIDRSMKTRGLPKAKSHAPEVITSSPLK
Sequence of FXa (P00742 41-179 partner limits assumed): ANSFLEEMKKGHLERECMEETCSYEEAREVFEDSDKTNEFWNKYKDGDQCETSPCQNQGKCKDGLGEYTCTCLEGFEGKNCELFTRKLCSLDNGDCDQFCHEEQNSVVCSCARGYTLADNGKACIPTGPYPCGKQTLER
T3 sequence (P00750 36-562, species assumed): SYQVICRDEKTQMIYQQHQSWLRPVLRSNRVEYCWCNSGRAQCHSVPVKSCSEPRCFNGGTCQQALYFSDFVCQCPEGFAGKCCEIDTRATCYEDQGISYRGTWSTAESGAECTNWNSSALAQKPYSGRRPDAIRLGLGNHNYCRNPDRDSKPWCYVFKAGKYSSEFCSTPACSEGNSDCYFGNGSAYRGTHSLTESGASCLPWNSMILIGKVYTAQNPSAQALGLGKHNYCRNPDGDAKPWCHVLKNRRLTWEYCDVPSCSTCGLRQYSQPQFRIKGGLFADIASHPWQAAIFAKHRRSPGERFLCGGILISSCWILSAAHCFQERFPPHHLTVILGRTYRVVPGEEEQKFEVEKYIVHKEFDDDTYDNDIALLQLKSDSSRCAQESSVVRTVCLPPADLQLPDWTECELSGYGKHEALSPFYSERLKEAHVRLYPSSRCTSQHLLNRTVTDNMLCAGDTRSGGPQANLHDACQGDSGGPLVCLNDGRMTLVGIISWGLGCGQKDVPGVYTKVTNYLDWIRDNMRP
T2 sequence (P00747 581-810 limits assumed): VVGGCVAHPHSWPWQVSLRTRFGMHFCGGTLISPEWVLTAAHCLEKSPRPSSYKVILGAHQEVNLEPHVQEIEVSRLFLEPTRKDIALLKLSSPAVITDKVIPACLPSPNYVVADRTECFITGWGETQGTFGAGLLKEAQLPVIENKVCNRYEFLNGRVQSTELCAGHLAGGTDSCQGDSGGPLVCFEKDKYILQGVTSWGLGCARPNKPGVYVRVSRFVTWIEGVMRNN
T2 sequence (P00747 97-580 partner limits assumed): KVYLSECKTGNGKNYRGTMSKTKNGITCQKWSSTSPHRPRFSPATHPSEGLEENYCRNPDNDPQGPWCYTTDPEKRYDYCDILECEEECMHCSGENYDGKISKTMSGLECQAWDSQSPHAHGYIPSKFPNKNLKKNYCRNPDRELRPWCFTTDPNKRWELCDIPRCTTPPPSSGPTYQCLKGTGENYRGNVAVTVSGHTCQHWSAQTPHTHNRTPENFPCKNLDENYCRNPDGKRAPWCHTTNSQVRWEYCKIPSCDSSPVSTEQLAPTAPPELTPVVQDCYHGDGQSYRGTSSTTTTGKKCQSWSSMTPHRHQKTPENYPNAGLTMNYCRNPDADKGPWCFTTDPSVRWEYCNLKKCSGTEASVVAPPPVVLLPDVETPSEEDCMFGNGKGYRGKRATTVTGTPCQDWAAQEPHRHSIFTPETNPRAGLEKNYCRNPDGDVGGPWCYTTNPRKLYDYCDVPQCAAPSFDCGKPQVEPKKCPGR

Regarding `O=C(O)C(F)(F)F.[N-]=[N+]=NCCOCCOC(=O)NC(Cc1ccc(NC(=N)N)cc1)P(=O)(Oc1ccccc1)Oc1ccccc1` (stereo not drawn) [Intermediate 60, 2-(2-azidoethoxy)ethyl 1-(diphenoxyphosphoryl)-2-(4-guanidinophenyl)ethyl carbamate 2,2,2-trifluoroacetate], the IC50 was 11.8 ± 0.6 µM in assay [1], 7.9 ± 0.3 µM in assay [2], 56 ± 53 µM in assay [3] and 0.0052 ± 0.001 µM in assay [6]. Besides, the “uPA: kapp” value in assay [4] (setting [7]) is 19 × 10^3 ± 8 × 10^3 * M^−1 s^−1. In assay [5], the “FXa % (I) @ 250” value worked out at 57% @ 250.

In the case of `Cl.N=C(N)Nc1ccc(CC(NC(=O)OCCCc2cn(CCOCCOCCOCCNC(=O)c3ccc(F)cc3)nn2)P(=O)(Oc2ccccc2)Oc2ccccc2)cc1` (stereo not drawn) [Final compound 8, 3-(1-(1-(4-fluorophenyl)-1-oxo-5,8,11-trioxa-2-azamidecan-13-yl)-1H-1,2,3-triazol-4-yl)propyl (1-(diphenoxyphosphoryl)-2-(4-guanidinophenyl)ethyl)carbamate hydrochloride], the IC50 is 13.2 ± 0.6 µM in assay [1]; 5.9 ± 0.8 µM in assay [2]; 46 ± 5 µM in assay [3]; approximately 62 µM in assay [5]; 0.019 ± 0.002 µM in assay [6]. Moreover, the “uPA: kapp” value in assay [4] (setting [7]) is listed as 68 × 10^2 ± 25 × 10^2 * M^−1 s^−1.

For `C#CCOCCOCCOCCOC(=O)NC(Cc1ccc(NC(=N)N)cc1)P(=O)(Oc1ccccc1)Oc1ccccc1.O=C(O)C(F)(F)F` (stereo not drawn) [Intermediate 57, 2-(2-(2-(prop-2-ynyloxy)ethoxy)ethoxy)ethyl 1-(diphenoxyphosphoryl)-2-(4-guanidinophenyl)ethylcarbamate 2,2,2-trifluoroacetate], the 50% inhibitory concentration (IC50) is 21 ± 5 µM in assay [1], 9 ± 2 µM in assay [2], 67 ± 7 µM in assay [3] and 0.011 ± 0.001 µM in assay [6]. Further, the “uPA: kapp” value in assay [4] (setting [7]) is given as 11 × 10^3 ± 4 × 10^3 * M^−1 s^−1. Moreover, the “FXa % (I) @ 250” value in assay [5] was 54% @ 250.

`C#CCCCOC(=O)NC(Cc1ccc(NC(=N)N)cc1)P(=O)(Oc1ccc(NC(C)=O)cc1)Oc1ccc(NC(C)=O)cc1` (stereo not drawn) [Intermediate 63, pent-4-ynyl 1-(bis(4-acetamidophenoxy)phosphoryl)-2-(4-guanidinophenyl)ethyl carbamate 2,2,2-trifluoroacetate]: the IC50 in assay [1] was 2.1 ± 0.2 µM; in assay [2], 1.4 ± 0.1 µM; in assay [3], 24 ± 4 µM; in assay [6], 0.0035 ± 0.0017 µM. Also, the “uPA: kapp” value in assay [4] (setting [7]) is given as 40 × 10^3 ± 8 × 10^3 * M^−1 s^−1. For the same compound, in assay [5], the “FXa % (I) @ 250” value is 70% @ 250.

Take `CCN(CC)c1ccc2c(-c3ccccc3C(=O)N3CCN(C(=O)CCCCCCCn4cc(COCCOCCOC(=O)NC(Cc5ccc(NC(=N)N)cc5)P(=O)(Oc5ccccc5)Oc5ccccc5)nn4)CC3)c3ccc(=[N+](CC)CC)cc-3oc2c1` (stereo not drawn) [Final compound 2, 2,2,2-trifluoroacetic acid, N-(6-(diethylamino)-9-(2-(4-(8-(4-(11-(diphenoxyphosphoryl)-12-(4-guanidinophenyl)-9-oxo-2,5,8-trioxa-10-azadodecyl)-1H-1,2,3-triazol-1-yl)octanoyl)piperazine-1-carbonyl)phenyl)-3H-xanthen-3-ylidene)-N-ethylethanaminium chloride]: the IC50 in assay [1] is 24 ± 21 µM; in assay [2], 5.4 ± 1.6 µM; in assay [3] it was 33 ± 13 µM; in assay [5], 176 ± 128 µM; in assay [6], 0.019 ± 0.003 µM. Further, the “uPA: kapp” value in assay [4] (setting [8]) was found to be 1300 ± 70 M⁻¹ s⁻¹.

On to `CCN(CC)c1ccc2c(-c3ccccc3C(=O)N3CCN(C(=O)CCCCCCCn4cc(COCCOC(=O)NC(Cc5ccc(NC(=N)N)cc5)P(=O)(Oc5ccccc5)Oc5ccccc5)nn4)CC3)c3ccc(=[N+](CC)CC)cc-3oc2c1.O=C(O)C(F)(F)F.[Cl-]` (stereo not drawn) [Final compound 1, 2,2,2-trifluoroacetic acid, N-(6-(diethylamino)-9-(2-(4-(8-(4-((2-(((1-(diphenoxyphosphoryl)-2-(4-guanidinophenyl)ethyl)carbamoyl)oxy)ethoxy)methyl)-1H-1,2,3-triazol-1-yl)octanoyl)piperazine-1-carbonyl)phenyl)-3H-xanthen-3-ylidene)-N-ethylethanaminium chloride], for which the IC50 in assay [1] came to 7.9 ± 1.7 µM; in assay [2], 5.4 ± 0.6 µM; in assay [3], 7.9 ± 0.3 µM; in assay [6], 0.017 ± 0.002 µM. In assay [4] (setting [8]), the “uPA: kapp” value is 1700 ± 100 M⁻¹ s⁻¹. Also, in assay [5] (at 2.5 (μM)), the “FXa % @ 2.5” value worked out at 11% @ 2.5.

Turning to `CCN(CC)c1ccc2c(-c3ccccc3C(=O)N3CCN(C(=O)CCCCCCCn4cc(CCCOC(=O)NC(Cc5ccc(NC(=N)N)cc5)P(=O)(Oc5ccc(NC(C)=O)cc5)Oc5ccc(NC(C)=O)cc5)nn4)CC3)c3ccc(=[N+](CC)CC)cc-3oc2c1.O=C(O)C(F)(F)F.[Cl-]` (stereo not drawn) [Final compound 5, 2,2,2-trifluoroacetic acid, N-(9-(2-(4-(8-(4-(3-(((1-(bis(4-acetamidophenoxy)phosphoryl)-2-(4-guanidinophenyl)ethyl)carbamoyl)oxy)propyl)-1H-1,2,3-triazol-1-yl)octanoyl)piperazine-1-carbonyl)phenyl)-6-(diethylamino)-3H-xanthen-3-ylidene)-N-ethylethanaminium chloride], the IC50 in assay [1] is 5.2 ± 0.2 µM; in assay [2], 5.6 ± 1.5 µM; in assay [3], more than 62 µM; in assay [6], 0.022 ± 0.002 µM. Moreover, the “uPA: kapp” value in assay [4] (setting [7]) is given as 52 × 10^2 ± 1 × 10^2 * M^−1 s^−1. Besides, in assay [5], the “FXa % (I) @ 250” value is recorded as 90% @ 250.

Take `O=C(O)C(F)(F)F.[N-]=[N+]=NCCCCCCOC(=O)NC(Cc1ccc(NC(=N)N)cc1)P(=O)(Oc1ccccc1)Oc1ccccc1` (stereo not drawn) [Intermediate 59, 6-azidohexyl 1-(diphenoxyphosphoryl)-2-(4-guanidinophenyl)ethylcarbamate 2,2,2-trifluoroacetate]: the IC50 in assay [1] came out at 2.4 ± 0.2 µM; in assay [2], 3.6 ± 0.3 µM; in assay [3], 16.7 ± 1.7 µM; in assay [6] it was 0.0096 ± 0.0019 µM. For the same compound, the “uPA: kapp” value in assay [4] (setting [7]) was 14 × 10^3 ± 3 × 10^3 * M^−1 s^−1. Moreover, the “FXa % (I) @ 250” value in assay [5] is listed as 61% @ 250.

As for `C#CCOCCOC(=O)NC(Cc1ccc(NC(=N)N)cc1)P(=O)(Oc1ccccc1)Oc1ccccc1.O=C(O)C(F)(F)F` (stereo not drawn) [Intermediate 55, 2-(prop-2-ynyloxy)ethyl 1-(diphenoxyphosphoryl)-2-(4-guanidinophenyl)ethyl carbamate 2,2,2-trifluoroacetate], the IC50 in assay [1] was 33 ± 4 µM; in assay [2], 11 ± 1 µM; in assay [3] it was 66 ± 13 µM; in assay [6] it was 0.0088 ± 0.0008 µM. Besides, the “uPA: kapp” value in assay [4] (setting [7]) was 19 × 10^3 ± 4 × 10^3 * M^−1 s^−1. Moreover, in assay [5], the “FXa % (I) @ 250” value came to 50% @ 250.
